The assay has as its target T1, DPAP1 (Plasmodium falciparum, UniProt Q8IIJ9).
T1 sequence (Q8IIJ9 370-599 limits assumed): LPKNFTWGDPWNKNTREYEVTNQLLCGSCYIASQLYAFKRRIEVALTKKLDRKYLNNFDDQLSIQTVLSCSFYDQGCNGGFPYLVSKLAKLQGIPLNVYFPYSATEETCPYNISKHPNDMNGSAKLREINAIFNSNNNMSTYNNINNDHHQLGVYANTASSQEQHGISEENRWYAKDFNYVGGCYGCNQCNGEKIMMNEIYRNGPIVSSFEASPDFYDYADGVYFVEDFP
T1 sequence (Q8IIJ9 28-209 limits assumed): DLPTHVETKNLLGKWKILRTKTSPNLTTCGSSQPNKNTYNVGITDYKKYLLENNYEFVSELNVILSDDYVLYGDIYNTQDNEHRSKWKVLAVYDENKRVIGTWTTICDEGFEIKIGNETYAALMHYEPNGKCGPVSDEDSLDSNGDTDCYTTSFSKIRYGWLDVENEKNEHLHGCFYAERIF
T1 sequence (Q8IIJ9 600-700 limits assumed): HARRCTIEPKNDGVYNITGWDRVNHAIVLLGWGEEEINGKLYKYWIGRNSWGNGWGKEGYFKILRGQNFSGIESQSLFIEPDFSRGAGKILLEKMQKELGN
Nature of the assay: biochemical. The assay is classed as biochemical. Particulars: for DPAP Primary hit (Hit = 1): 10 μM HTS, 0 not defined; for inhibition at 10 µM: 10 μM compound, parasite lysates, (PR)2Rho, 30 min end-point, read-out: DPAP1 % Inhibition @ 10 uM.

37 molecules from publication PMC6919601, “Identification of Plasmodium dipeptidyl aminopeptidase allosteric inhibitors by high throughput screening” (PLoS ONE, 2019) can be followed below.

The term inhibition denotes the drop in the measured response relative to a control, in per cent.

As to `COc1ccc(CN2CSC3=C(C#N)C(c4cccs4)CC(=O)N3C2)cc1` (centres unmarked) [SMDC178823, COc1ccc(CN2CSC3=C(C#N)C(CC(=O)N3C2)c4cccs4)cc1], the “DPAP Primary hit (Hit = 1)” value was found to be 1 and the inhibition at 10 µM came out at 51%.

In the case of `CC(C)CCN1CSC2=C(C#N)C(c3ccc(Cl)cc3)CC(=O)N2C1` (centres unmarked) [SMDC178791, CC(C)CCN1CSC2=C(C#N)C(CC(=O)N2C1)c3ccc(Cl)cc3], the “DPAP Primary hit (Hit = 1)” value is 1 and the inhibition at 10 µM was 55%.

On to `COc1ccc(C2CC(=O)N3CN(Cc4cccnc4)CSC3=C2C#N)cc1` (centres unmarked) [SMDC178811, COc1ccc(cc1)C2CC(=O)N3CN(Cc4cccnc4)CSC3=C2C#N], for which the “DPAP Primary hit (Hit = 1)” value was 0 and the inhibition at 10 µM was found to be 46%.

As for `N#CC1=C2SCN(CCc3ccccc3)CN2C(=O)CC1c1cccs1` (centres unmarked) [SMDC178843, O=C1CC(C(=C2SCN(CCc3ccccc3)CN12)C#N)c4cccs4], the “DPAP Primary hit (Hit = 1)” value is 0 and the inhibition at 10 µM was determined as 43%.

On to `COc1ccc(OC)c(C2CC(=O)N3CN(C4CCCCC4)CSC3=C2C#N)c1` (centres unmarked) [SMDC170143, COc1ccc(OC)c(c1)C2CC(=O)N3CN(CSC3=C2C#N)C4CCCCC4], for which the “DPAP Primary hit (Hit = 1)” value was 0 and the inhibition at 10 µM was found to be 10%.

Consider `COc1ccc(C2CC(=O)N3CN(Cc4ccccc4)CSC3=C2C#N)cc1OC` (centres unmarked) [SMDC170071, COc1ccc(cc1OC)C2CC(=O)N3CN(Cc4ccccc4)CSC3=C2C#N], for which the “DPAP Primary hit (Hit = 1)” value was found to be 0 and the inhibition at 10 µM worked out at 7%.

On to `N#CC1=C2SCN(Cc3ccccc3)CN2C(=O)CC1c1cccs1` (centres unmarked) [SMDC170105, O=C1CC(C(=C2SCN(Cc3ccccc3)CN12)C#N)c4cccs4], for which the “DPAP Primary hit (Hit = 1)” value is 0 and the inhibition at 10 µM worked out at 41%.

For `CCOc1ccc(C2CC(=O)N3CN(Cc4ccccc4)CSC3=C2C#N)cc1` (centres unmarked) [SMDC170162, CCOc1ccc(cc1)C2CC(=O)N3CN(Cc4ccccc4)CSC3=C2C#N], the “DPAP Primary hit (Hit = 1)” value is on record as 0 and the inhibition at 10 µM was 49%.

Consider `COc1ccc2ccccc2c1C1CC(=O)N2CN(C)CSC2=C1C#N` (centres unmarked) [SMDC170175, COc1ccc2ccccc2c1C3CC(=O)N4CN(C)CSC4=C3C#N], for which the “DPAP Primary hit (Hit = 1)” value came out at 0 and the inhibition at 10 µM amounted to 37%.

In the case of `COc1ccc2ccccc2c1C1CC(=O)N2CN(C3CCCCC3)CSC2=C1C#N` (centres unmarked) [SMDC170116, COc1ccc2ccccc2c1C3CC(=O)N4CN(CSC4=C3C#N)C5CCCCC5], the “DPAP Primary hit (Hit = 1)” value is listed as 0 and the inhibition at 10 µM was determined as 27%.

Regarding `Cc1ccc(C2CC(=O)N3CN(Cc4cccnc4)CSC3=C2C#N)cc1` (centres unmarked) [SMDC178800, Cc1ccc(cc1)C2CC(=O)N3CN(Cc4cccnc4)CSC3=C2C#N], the “DPAP Primary hit (Hit = 1)” value was 0 and the inhibition at 10 µM amounted to 44%.

In the case of `COc1ccc(OC)c(C2CC(=O)N3CN(Cc4ccco4)CSC3=C2C#N)c1` (centres unmarked) [SMDC170133, COc1ccc(OC)c(c1)C2CC(=O)N3CN(Cc4occc4)CSC3=C2C#N], the “DPAP Primary hit (Hit = 1)” value was found to be 0 and the inhibition at 10 µM was 7%.

On to `Cc1ccccc1C1CC(=O)N2CN(C3CCCCC3)CSC2=C1C#N` (centres unmarked) [SMDC170112, Cc1ccccc1C2CC(=O)N3CN(CSC3=C2C#N)C4CCCCC4], for which the “DPAP Primary hit (Hit = 1)” value amounted to 0 and the inhibition at 10 µM was found to be 24%.

Consider `CCOc1ccc(C2CC(=O)N3CN(C4CCCCC4)CSC3=C2C#N)cc1` (centres unmarked) [SMDC170152, CCOc1ccc(cc1)C2CC(=O)N3CN(CSC3=C2C#N)C4CCCCC4], for which the “DPAP Primary hit (Hit = 1)” value is 0 and the inhibition at 10 µM stood at 47%.

On to `CN1CSC2=C(C#N)C(c3cccc(OCc4ccccc4)c3)CC(=O)N2C1` (centres unmarked) [SMDC170126, CN1CSC2=C(C#N)C(CC(=O)N2C1)c3cccc(OCc4ccccc4)c3], for which the “DPAP Primary hit (Hit = 1)” value amounted to 1 and the inhibition at 10 µM was 71%.

As to `Cc1ccc(C2CC(=O)N3CN(CCc4ccccc4)CSC3=C2C#N)cc1` (centres unmarked) [SMDC178761, Cc1ccc(cc1)C2CC(=O)N3CN(CCc4ccccc4)CSC3=C2C#N], the “DPAP Primary hit (Hit = 1)” value came out at 1 and the inhibition at 10 µM is 64%.

Regarding `COc1cc(C2CC(=O)N3CN(Cc4ccccc4)CSC3=C2C#N)cc(Br)c1O` (centres unmarked) [SMDC170146, COc1cc(cc(Br)c1O)C2CC(=O)N3CN(Cc4ccccc4)CSC3=C2C#N], the “DPAP Primary hit (Hit = 1)” value is on record as 1 and the inhibition at 10 µM was 57%.

For the molecule `COc1ccc2ccccc2c1C1CC(=O)N2CN(Cc3ccco3)CSC2=C1C#N` (centres unmarked) [SMDC170165, COc1ccc2ccccc2c1C3CC(=O)N4CN(Cc5occc5)CSC4=C3C#N], the “DPAP Primary hit (Hit = 1)” value stood at 0 and the inhibition at 10 µM amounted to 31%.

As to `COc1ccc(Br)cc1C1CC(=O)N2CN(Cc3ccco3)CSC2=C1C#N` (centres unmarked) [SMDC170125, COc1ccc(Br)cc1C2CC(=O)N3CN(Cc4occc4)CSC3=C2C#N], the “DPAP Primary hit (Hit = 1)” value was determined as 1 and the inhibition at 10 µM stood at 61%.

With `CN1CSC2=C(C#N)C(c3ccccc3)CC(=O)N2C1` (centres unmarked) [SMDC170114, CN1CSC2=C(C#N)C(CC(=O)N2C1)c3ccccc3], the “DPAP Primary hit (Hit = 1)” value is 0 and the inhibition at 10 µM is 33%.

In the case of `CC(C)C[C@H](NC(=O)OCc1ccccc1)C(=O)NC1CCOC1O` (some centres unmarked) [SMDC279746, CC(C)C[C@H](NC(=O)OCc1ccccc1)C(=O)NC2CCOC2O], the inhibition at 10 µM amounted to 5.05%.

For `Cc1ccc(C2CC(=O)N3CN(C(C)c4ccccc4)CSC3=C2C#N)cc1` (centres unmarked) [SMDC178820, CC(N1CSC2=C(C#N)C(CC(=O)N2C1)c3ccc(C)cc3)c4ccccc4], the “DPAP Primary hit (Hit = 1)” value came to 0 and the inhibition at 10 µM turned out to be 11%.

Take `COc1ccc2ccccc2c1C1CC(=O)N2CN(Cc3ccccc3)CSC2=C1C#N` (centres unmarked) [SMDC170106, COc1ccc2ccccc2c1C3CC(=O)N4CN(Cc5ccccc5)CSC4=C3C#N]: the “DPAP Primary hit (Hit = 1)” value is given as 0 and the inhibition at 10 µM is 36%.

Consider `COc1cc(C2CC(=O)N3CN(C4CCCCC4)CSC3=C2C#N)cc(OC)c1OC` (centres unmarked) [SMDC170164, COc1cc(cc(OC)c1OC)C2CC(=O)N3CN(CSC3=C2C#N)C4CCCCC4], for which the “DPAP Primary hit (Hit = 1)” value is listed as 0 and the inhibition at 10 µM was found to be 2%.

As for `N#CC1=C2SCN(C3CCCC3)CN2C(=O)CC1c1ccc(Cl)cc1` (centres unmarked) [SMDC178771, Clc1ccc(cc1)C2CC(=O)N3CN(CSC3=C2C#N)C4CCCC4], the “DPAP Primary hit (Hit = 1)” value came out at 1 and the inhibition at 10 µM was found to be 55%.

In the case of `N#CC1=C2SCN(Cc3ccco3)CN2C(=O)CC1c1cccs1` (centres unmarked) [SMDC178892, O=C1CC(C(=C2SCN(Cc3occc3)CN12)C#N)c4cccs4], the “DPAP Primary hit (Hit = 1)” value was found to be 0 and the inhibition at 10 µM was determined as 48%.

For the molecule `N#CC1=C2SCN(CCN3CCOCC3)CN2C(=O)CC1c1ccc(F)cc1` (centres unmarked) [SMDC178862, Fc1ccc(cc1)C2CC(=O)N3CN(CCN4CCOCC4)CSC3=C2C#N], the “DPAP Primary hit (Hit = 1)” value came to 1 and the inhibition at 10 µM was 50%.

On to `CCOc1ccc(C2CC(=O)N3CN(C)CSC3=C2C#N)cc1OC` (centres unmarked) [SMDC170104, CCOc1ccc(cc1OC)C2CC(=O)N3CN(C)CSC3=C2C#N], for which the “DPAP Primary hit (Hit = 1)” value came to 0 and the inhibition at 10 µM worked out at 48%.

As for `COc1ccc(Br)cc1C1CC(=O)N2CN(Cc3ccccc3)CSC2=C1C#N` (centres unmarked) [SMDC170155, COc1ccc(Br)cc1C2CC(=O)N3CN(Cc4ccccc4)CSC3=C2C#N], the “DPAP Primary hit (Hit = 1)” value is 1 and the inhibition at 10 µM was determined as 61%.

Regarding `N#CC1=C2SCN(Cc3ccccc3)CN2C(=O)CC1c1ccc(Cl)cc1` (centres unmarked) [SMDC170091, Clc1ccc(cc1)C2CC(=O)N3CN(Cc4ccccc4)CSC3=C2C#N], the “DPAP Primary hit (Hit = 1)” value is reported as 0 and the inhibition at 10 µM came to 42%.

In the case of `CC[C@H](C)[C@H](NC(=O)c1cccc(CN)c1)C(=O)N[C@@H](CCc1ccccc1)C(=O)COC` [SMDC279824, CC[C@H](C)[C@H](NC(=O)c1cccc(CN)c1)C(=O)N[C@@H](CCc2ccccc2)C(=O)COC], the inhibition at 10 µM worked out at 8%.

Turning to `N#CC1=C2SCN(C3CCCCC3)CN2C(=O)CC1c1ccccc1F` (centres unmarked) [SMDC170132, Fc1ccccc1C2CC(=O)N3CN(CSC3=C2C#N)C4CCCCC4], the “DPAP Primary hit (Hit = 1)” value is listed as 0 and the inhibition at 10 µM amounted to 38%.

`CCc1ccc(C2CC(=O)N3CN(Cc4ccccc4)CSC3=C2C#N)cc1` (centres unmarked) [SMDC170113, CCc1ccc(cc1)C2CC(=O)N3CN(Cc4ccccc4)CSC3=C2C#N]: the “DPAP Primary hit (Hit = 1)” value amounted to 0 and the inhibition at 10 µM was found to be 39%.

Turning to `N#CC1=C2SCN(C3CCCC3)CN2C(=O)CC1c1cccs1` (centres unmarked) [SMDC178882, O=C1CC(C(=C2SCN(CN12)C3CCCC3)C#N)c4cccs4], the “DPAP Primary hit (Hit = 1)” value was 0 and the inhibition at 10 µM worked out at 48%.

As to `CCCC[C@H](NC(=O)[C@@H](NC(=O)c1cccc(CNC(=O)OC(C)(C)C)c1)[C@@H](C)CC)C(=O)C[N+](=O)[O-]` [SMDC279823, CCCC[C@H](NC(=O)[C@@H](NC(=O)c1cccc(CNC(=O)OC(C)(C)C)c1)[C@@H](C)CC)C(=O)C[N+](=O)[O-]], the inhibition at 10 µM is -0.778%.

As to `Cc1ccc(C2CC(=O)N3CN(C4CCCCC4)CSC3=C2C#N)cc1` (centres unmarked) [SMDC170101, Cc1ccc(cc1)C2CC(=O)N3CN(CSC3=C2C#N)C4CCCCC4], the “DPAP Primary hit (Hit = 1)” value worked out at 0 and the inhibition at 10 µM was determined as 26%.

`COc1cc(C2CC(=O)N3CN(Cc4ccco4)CSC3=C2C#N)ccc1O` (centres unmarked) [SMDC170153, COc1cc(ccc1O)C2CC(=O)N3CN(Cc4occc4)CSC3=C2C#N]: the “DPAP Primary hit (Hit = 1)” value is given as 0 and the inhibition at 10 µM turned out to be 18%.
